Data on 20 compounds can be found in US9890138B2, “Diaminopyrimidine derivatives and processes for the preparation thereof” (YUHAN CORPORATION, priority 2011, dated 2018).

Molecules are shown by their SMILES. Structures can show the parent of a compound that is named as a salt.

This test addresses T1, human 5-HT4(a) (Homo sapiens, UniProt Q13639).
T1 construct: host or cells: GeneBlAzer HTR4-CRE-bla CHO-K1 cells
Kind of test: Evaluation of agonistic activity in CHO-K1 cells expressing human 5-HT4(a) (GeneBlAzer HTR4-CRE-bla CHO-K1, beta-lactamase reporter). In kind it is cell-based. The note with it: CHO-K1 cells stably expressing human 5-HT4(a). A digest of the protocol:
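GeneBlAzer HTR4-CRE-bla CHO-K1 cells, 10^4/well overnight, exposed 5 h to compounds at 8 concentrations in medium with 1% DMSO in the added solution. β-lactamase substrate 2 h in dark; 410 nm excitation, 465/535 nm emission ratio; EC50 by non-linear regression.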

T1 sequence (Q13639 1-387 isoform Q13639-2): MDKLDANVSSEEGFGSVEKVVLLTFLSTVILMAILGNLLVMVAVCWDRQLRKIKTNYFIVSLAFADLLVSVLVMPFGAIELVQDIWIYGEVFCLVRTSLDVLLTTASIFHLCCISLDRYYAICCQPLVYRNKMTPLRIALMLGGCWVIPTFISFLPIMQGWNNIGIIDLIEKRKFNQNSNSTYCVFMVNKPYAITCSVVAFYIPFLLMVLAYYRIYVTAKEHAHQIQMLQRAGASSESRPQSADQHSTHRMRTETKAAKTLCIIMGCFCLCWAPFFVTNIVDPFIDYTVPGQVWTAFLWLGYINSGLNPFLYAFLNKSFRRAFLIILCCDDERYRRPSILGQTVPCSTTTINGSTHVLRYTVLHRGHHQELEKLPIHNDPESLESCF

What is called EC50 is the midpoint of the concentration-response curve. Lower therefore signals a more potent agent. Consider `CCCc1cc(N2CC[C@H](NC(=O)Cc3cccnc3)C2)nc(Nc2cccc(C#N)c2)n1` [Example 77, (S)-N-{1-[2-(3-cyanophenylamino)-6-propylpyrimidin-4-yl]pyrrolidin-3-yl}-2-(pyridin-3-yl)acetamide], for which the EC50 turned out to be 0.15 nM.
With `CCCc1cc(N2CC[C@H](NCC3CC3)C2)nc(Nc2ccc(F)c(C(F)(F)F)c2)n1` [Example 382] the figure was 0.0051 nM.
`CCCc1cc(N2CC[C@H](NCC(C)CC)C2)nc(Nc2cccc(C#N)c2)n1` (stereo partly drawn) [Example 95, 3-{4-[(3S)-3-(2-methylbutylamino)pyrrolidin-1-yl]-6-propylpyrimidin-2-ylamino}benzonitrile]: the EC50 came out at 0.081 nM.
The value for `CCCc1cc(N2CC[C@H](N)C2)nc(Nc2ccc(F)c(N)c2)n1` [Example 370, (S)—N^1-[4-(3-aminopyrrolidin-1-yl)-6-propylpyrimidin-2-yl]-4-fluorobenzene-1,3-diamine dihydrochloride] was 0.015 nM; that for `CCCCc1cc(N2CC[C@H](NC(C)=O)C2)nc(Nc2ccc(C)c(C#N)c2)n1` [Example 228, (S)—N-{1-[6-butyl-2-(3-cyano-4-methylphenylamino)pyrimidin-4-yl]pyrrolidin-3-yl}acetamide] was 0.014 nM.
`CCCc1cc(N2CC[C@H](NCC3CC3)C2)nc(Nc2cccc(C#N)c2)n1` [Example 99, (S)-3-{4-[3-(cyclopropylmethylamino)pyrrolidin-1-yl]-6-propylpyrimidin-2-ylamino}benzonitrile] showed an EC50 of 0.0015 nM.
`CCCc1cc(N2CC[C@H](NC(CC)CC)C2)nc(Nc2cccc(C#N)c2)n1` [Example 128, (S)-3-{4-[3-(pentan-3-ylamino)pyrrolidin-1-yl]-6-propylpyrimidin-2-ylamino}benzonitrile] registered an EC50 of 0.039 nM.
With `CCCc1cc(N2CCC(NC(C)=O)C2)nc(Nc2ccc(C)c(Cl)c2)n1` (centres unmarked) [Example 304] the figure was 0.07 nM; with `CCCc1cc(N2CCC[C@H]2CO)nc(Nc2cc(Cl)ccc2C)n1` [Example 204], 0.47 nM; with `CCCc1cc(N2CC[C@H](NCC)C2)nc(Nc2cccc(C#N)c2)n1` [Example 55, (S)-3-{4-[3-(ethylamino)pyrrolidin-1-yl]-6-propylpyrimidin-2-ylamino}benzonitrile], 0.016 nM.
The value for `CCCc1cc(N2CCC[C@H]2C)nc(Nc2ccc(C)c(C#N)c2)n1` [Example 326] was 0.028 nM.
The value for `CCCc1cc(N2CC[C@H](NC(=O)CO)C2)nc(Nc2cc(N)cc(C(F)(F)F)c2)n1` [Example 475] was 0.011 nM.
Compound `CCCCc1cc(N2CC[C@H](NC(C)=O)C2)nc(Nc2cc(N)cc(C(F)(F)F)c2)n1` [Example 440] came in with an EC50 of 0.017 nM.
With `CCCc1cc(N2CCC[C@H]2C)nc(Nc2ccc(C)c(Cl)c2)n1` [Example 318] the figure was 0.16 nM.
As for `CCCc1cc(N2CCC[C@H]2C)nc(Nc2ccc(C)c(N)c2)n1` [Example 334], the response was half-maximal at 0.085 nM (EC50).
With `CCCc1cc(N2CC[C@H](NC3CCCC3)C2)nc(Nc2cccc(C#N)c2)n1` [Example 143] the figure was 0.0066 nM.
With `CCCCCN[C@H]1CCN(c2cc(CCC)nc(Nc3ccc(C)c(C#N)c3)n2)C1` [Example 422] the figure was 0.011 nM.
The value for `CCCCCN[C@H]1CCN(c2cc(CCC)nc(Nc3cccc(C#N)c3)n2)C1` [Example 94, (S)-3-{4-[3-(pentylamino)pyrrolidin-1-yl]-6-propylpyrimidin-2-ylamino}benzonitrile] was 0.041 nM.
In turn, `CCCc1cc(N2CC[C@H](NC(=O)CO)C2)nc(Nc2cc(N)cc(C#N)c2)n1` [Example 474, (S)—N-{1-[2-(3-amino-5-cyanophenylamino)-6-propylpyrimidin-4-yl]pyrrolidin-3-yl}-2-hydroxyacetamide] showed an EC50 of 0.0066 nM.
For the compound `CCCc1cc(N2CC[C@H](NC(=O)Cc3ccccc3)C2)nc(Nc2cccc(C#N)c2)n1` [Example 66, (S)-N-{1-[2-(3-cyanophenylamino)-6-propylpyrimidin-4-yl]pyrrolidin-3-yl}-2-phenylacetamide], it took 0.1 nM to reach a half-maximal effect (EC50).
